Data published in patent US4795749A, “Imidazopyrroloquinoxaline compounds” (A/S Ferrosan, priority 1985, dated 1989).

Tested on: benzodiazepine receptors
Assay: in vivo displacement of 3H-flunitrazepam from brain benzodiazepine receptors
Conditions: female mice, intraperitoneal, 15 min before 3H-FNM i.v.; forebrain 20 min after 3H-FNM
From the text: The pharmaceutical properties of the compounds of the invention can be illustrated by determining their capability for displacing radioactivity labelled flunitrazepam from benzodiazepine receptors.
The displacement activity of the compounds of the invention may be found by determining the ED50 value. The ED50 value represents the dose (mg/kg) of a test substance which causes the specific binding of flunitrazepam to benzodiazepine receptors in a living brain to be reduced to 50% of the control value.
Such an in vivo test is carried out as follow:
Principle. Twenty minutes after a dose of ^3 H-flunitrazepam (^3 H-FNM) (200 μCi/kg, i.v.) the amount of specific ^3 H-FNM binding to brain benzodiazepine receptors has reached its maximum value.
Test procedure. […] The amounts of radioactivity on the filters are determined by conventional scintillation counting. […]
Results. The ED50 value is determined from dose response curves. If only one dose of test substance is administered the ED50 value is calculated as follows, provided that the inhibition of specific binding is within the range of 25-75%: [formula] where Co is specific binding in controls and Cx is specific binding in mice treated with test substance.

## c1ccc2c(c1)N1CCCC1c1c(-c3noc(C4CC4)n3)ncn1-2 (stereo not shown)
  in vivo ED50 (dose reducing specific 3H-flunitrazepam binding to brain benzodiazepine receptors to 50% of the control value): 5.1 mg/kg
